Experimental findings from article PMC13110364, “Design, Synthesis, and Biological Evaluation of Novel Triazine‐Based Dual Histone Deacetylase/phosphatidylinositol 3‐kinase Inhibitors for Breast Cancer Therapy” (Chemmedchem, 2026) are described below.

The test system of test [1] is PI3K pathway (phosphorylation of AKT). As to the kind of experiment: Western blot, phospho-AKT in treated cells. The format is cell-based. Conditions: LY2, JIMT1, MDA‐MB‐231 cells, 24 h; seen at 10 µM. On the procedure: FIGURE 4 Cell‐based evaluation of compounds 5a– 5f. Dose‐dependent effects of compound treatment (5a‐5f) on breast cancer cell viability across JIMT1 (A), MDA‐MB‐231 (B), and LY2 (C). Cell‐based evaluation of HDAC and PI3K inhibition by compounds 5b and 5f by Western blot. JIMT1 cells were treated for 24 h with compounds 5b (D) and 5f (E) at the concentrations of 1, 3, and 10 µM or with vehicle control (0.1% DMSO). Protein expression levels were analyzed by western blot using antibodies against acetylated α‐tubulin, acetyl H3 (H3K9Ac and H3K14Ac), phospho‐AKT (p‐AKT), and total AKT. GAPDH served as a loading control.
To investigate if 5b and 5f were acting as multitarget inhibitors, we evaluated the modulation of HDAC6 and PI3K signaling pathways by western blot analysis (Figure 4D,E). […]
Total protein samples were extracted from treated cells using a lysis buffer containing 0.1% IGEPAL CA‐630 (I8896, Merck), 0.5% deoxycholic acid (D2510, Merck), and 0.1% SDS (L3771, Merck), freshly supplemented with protease and phosphatase inhibitor cocktail (78442, Thermo Fisher Scientific). Protein concentrations were quantified using the Pierce BCA Protein Assay Kit (23227, Thermo Fisher Scientific) according to the manufacturer's instructions. […] Chemiluminescence signals were detected using the Amersham Imager 680 Imaging System. […]
(In western blotting, separated proteins are transferred to a membrane and probed.)

The test system of test [2] is MDA‐MB‐231 triple‐negative breast cancer cell line. As to the kind of experiment: MTS cell viability assay, MDA-MB-231. Conditions: MDA‐MB‐231 cells, 72 h treatment. The format is cell-based. As to the method: The cell viability effects of compounds 5a–5f were assessed in LY2, JIMT1, and MDA‐MB‐231 breast cancer cell lines using the 3‐(4,5‐dimethylthiazol‐2‐yl)‐5‐(3‐carboxymethoxyphenyl)‐2‐(4‐sulfophenyl)‐2H‐tetrazolium (MTS) assay. The MTS assay measures metabolic viability and serves as a first‐pass screen.
JIMT‐1 (DSMZ ACC 589) and MDA‐MB‐231 (ATCC HTB‐26) breast cancer cell lines were maintained in Dulbecco's Modified Eagle Medium (DMEM) High Glucose with L‐glutamine (D5796, Sigma) supplemented with 10% fetal calf serum. MCF7‐derivative LY2 breast cancer cells were previously described (REF: PMID: 33420368). LY2 cells were cultured in phenol red‐free MEM (PRF‐MEM; 51 200‐046, Gibco) supplemented with 10% charcoal dextran‐stripped fetal calf serum (CDS‐FCS; F6765, Merck), 2 mmol/L L‐glutamine (G7513, Merck), and 10^−8 mol/L 4‐hydroxytamoxifen (4‐OHT; H7904, Merck). All cell lines were maintained at 37°C in a humidified incubator with 5% CO2 and regularly authenticated and tested for mycoplasma.
Cell viability was evaluated in response to increasing concentrations of 5a‐5f (0.3, 1, 3, 10, and 30 μM) or vehicle control (0.1% DMSO). LY2, JIMT1, and MDA‐MB‐231 cells were seeded at a density of 2,500 cells per well in 96‐well plates with a total volume of 100 μL per well. Prior to treatment, cells were serum‐deprived for 24 h. Following serum depletion, cells were treated in complete growth medium for 72 h. Cell viability was assessed using the MTS assay (G1111, Promega) according to the manufacturer's instructions. Absorbance was measured at 495 nm using a BioTek Synergy HTX Multi‐Mode Microplate Reader (Agilent). Results were normalized to the vehicle control (DMSO), and the half‐maximal inhibitory concentration (IC50) of the inhibitors was determined by nonlinear regression (curve fit) using a four‐parameter variable slope model.
On the technique in general: Tetrazolium dyes change colour on reduction, which living cells bring about.

The target in another test is HDAC4 (Homo sapiens, UniProt P56524). As to the kind of experiment: Selectivity profile, single dose 0.5 µM, HDAC4. The class given is biochemical. The following applies: remaining enzyme activity; single‐dose duplicate mode at 0.5 μM; read-out: Enzyme % activity (relative to DMSO controls) at 0.5 µM, HDAC4. As to the method: The inhibitory profiles of 5b and 5f were evaluated against selected HDAC isoforms (HDAC1, HDAC3, HDAC4, HDAC8, and HDAC10) and PI3K isoforms (PI3Kδ, PI3Kγ, and PI3Kβ) at a fixed concentration of 0.5 µM (Table 3). […] While we explored the phenyl ring in the linker region to achieve selectivity for the HDAC6 isoform, we still observed HDAC class I inhibition. […] It is important to highlight that PI3Kδ is mainly expressed in hematopoietic system and plays roles in leukocyte signaling, T‐cell activation, and immune cell trafficking. FDA‐approved drug idelalisib is a selective PI3Kδ inhibitor in B‐cell malignancies; however, this drug is also related to disruption of the immune system, which can lead to immune manifestations, such as infections. In addition, while isoform‐selective PI3K inhibitors are well tolerated, pan‐inhibition of PI3K is less expected that compensatory mechanisms by the action of other PI3Ks can take place. Thus, a more balanced profile of PI3K inhibition can lead to an overall lack of toxicity of PI3K inhibitors.
Sequence of HDAC4 (P56524 whole entry, canonical isoform): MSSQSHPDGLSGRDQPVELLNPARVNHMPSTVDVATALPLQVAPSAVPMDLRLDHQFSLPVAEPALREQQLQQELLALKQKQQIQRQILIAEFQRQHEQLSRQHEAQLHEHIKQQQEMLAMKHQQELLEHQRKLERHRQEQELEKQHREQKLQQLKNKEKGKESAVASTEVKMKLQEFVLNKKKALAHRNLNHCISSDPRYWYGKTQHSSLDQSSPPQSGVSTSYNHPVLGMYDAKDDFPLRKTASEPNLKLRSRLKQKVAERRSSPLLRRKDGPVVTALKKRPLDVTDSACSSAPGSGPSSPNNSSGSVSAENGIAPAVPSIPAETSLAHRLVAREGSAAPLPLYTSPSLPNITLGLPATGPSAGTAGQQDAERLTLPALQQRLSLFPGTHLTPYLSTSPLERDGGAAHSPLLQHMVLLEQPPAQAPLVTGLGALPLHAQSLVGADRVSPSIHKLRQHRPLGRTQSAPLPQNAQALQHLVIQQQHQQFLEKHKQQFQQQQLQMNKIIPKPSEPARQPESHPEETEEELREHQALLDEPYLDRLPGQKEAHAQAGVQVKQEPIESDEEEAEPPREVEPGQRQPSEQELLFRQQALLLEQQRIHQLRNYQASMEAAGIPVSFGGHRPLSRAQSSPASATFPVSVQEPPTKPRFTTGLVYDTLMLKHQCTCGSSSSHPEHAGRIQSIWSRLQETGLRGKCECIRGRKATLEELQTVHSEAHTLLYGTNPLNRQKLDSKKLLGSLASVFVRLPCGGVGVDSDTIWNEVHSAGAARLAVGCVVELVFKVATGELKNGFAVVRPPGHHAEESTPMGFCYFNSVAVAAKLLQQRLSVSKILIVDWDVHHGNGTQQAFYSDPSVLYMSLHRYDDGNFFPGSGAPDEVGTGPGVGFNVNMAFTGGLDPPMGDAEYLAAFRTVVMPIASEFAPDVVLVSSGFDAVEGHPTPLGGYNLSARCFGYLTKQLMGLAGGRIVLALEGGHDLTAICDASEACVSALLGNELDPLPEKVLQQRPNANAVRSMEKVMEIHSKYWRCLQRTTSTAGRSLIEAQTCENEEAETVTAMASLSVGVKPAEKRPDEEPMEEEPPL

`O=C(NO)c1ccc(CNc2nc(-c3cccc(O)c3)nc(N3CCOCC3)n2)cc1` [Compound 5b, N‐Hydroxy‐4‐(((4‐(3‐Hydroxyphenyl)‐6‐Morpholino‐1,3,5‐Triazin‐2‐yl)Amino)Methyl)Benzamide]: the “Phosphorylation of AKT, western blot” value in test [1] was “decreased phosphorylation of AKT”. Further, the IC50 (as a rule, the concentration at which inhibition is half-maximal) in test [2] (Homo sapiens, MDA-MB-231, 72 h) is less than 5 µM; in test [2] it was 4.4 ± 0.54 µM. Moreover, the remaining activity at 0.5 µM on HDAC4 is 89%.
With `COc1ccc(-c2nc(NCc3ccc(C(=O)NO)cc3)nc(N3CCOCC3)n2)cn1` [Compound 5f, N‐Hydroxy‐4‐(((4‐(6‐Methoxypyridin‐3‐yl)‐6‐Morpholino‐1,3,5‐Triazin‐2‐yl)Amino)Methyl)Benzamide], the “Phosphorylation of AKT, western blot” value in test [1] is given as “decreased phosphorylation of AKT”. For the same compound, the IC50 in test [2] (Homo sapiens, MDA-MB-231, 72 h) is less than 5 µM; in test [2], 3.3 ± 0.13 µM. The remaining activity at 0.5 µM at HDAC4 amounted to 98.4%.
